In PubChem BioAssay (NCI):
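Exposure lasted 48 hours, with cells grown in 96-well plates and compounds tested at five concentrations. TGI is the concentration that stops growth completely.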 Where a SMILES comes first, the peptide text is derived from it. The star is where a group is joined. Boc = CC(C)(C)OC(=O)*; OBn = c1ccc(CO*)cc1; Bn = c1ccc(C*)cc1

Tests used:
Test in all cases: inhibition of tumour cell growth, NCI panel, 48 h
[1] = test system: EKVX NSCLC
[2] = test system: MOLT-4 leukemia
[3] = test system: SNB-19 CNS
[4] = test system: SW-620 colon
[5] = test system: HOP-92 NSCLC
[6] = test system: MCF7 breast
[7] = test system: MDA-MB-231 breast
[8] = test system: MDA-MB-435
[9] = test system: NCI-H226 lung
[10] = test system: SK-MEL-2 melanoma

SMILES | TGI [1] [µM] | TGI [2] [µM] | TGI [3] [µM] | TGI [4] [µM] | TGI [5] [µM] | TGI [6] [µM] | TGI [7] [µM] | TGI [8] [µM] | TGI [9] [µM] | TGI [10] [µM]
COc1ccc(/C=N/N=C(N)N)c(C(=O)O)c1OC | > 100 | > 100 | > 100 | > 100 |  |  |  |  |  | 
CN(C)c1ccc(C(=C2C=CC(=[N+](C)C)C=C2)c2c(O)c(S(=O)(=O)[O-])cc3cc(S(=O)(=O)O)ccc23)cc1 | > 100 | > 100 | > 100 | > 100 | > 100 | > 100 | > 100 | > 100 | > 100 | > 100
Brc1ccc2c(c1)[C@H]1CCc3c([nH]c4ccccc34)[C@H]1N2 | 22.6 | 16.8 | 27 | 27.4 | 26.3 | 18.6 | 12.3 | 26.2 | 28.4 | 36.4
CCCCc1ccc(Nc2nc(N)c3[nH]cnc3n2)cc1 | 45.4 | 40.2 | 37.8 | 63.6 | 33.3 | 42.4 | 39 | 40.6 | 53.2 | 57.6
CC(C)=CCC[C@@H](C)c1c(O)c(O)c(C)c2nc3ccccc3nc12 | 14.8 | > 27.9 | 15.5 | > 100 | 5.11 | 13.4 | 15 | 18.3 | 5.97 | 9.26
O=c1[nH]/c(=C/c2cccs2)c(=O)[nH]/c1=C/c1ccc(OCc2ccccc2)cn1 | > 100 | > 35.8 | > 46.2 | > 100 |  | 39.6 | > 48.9 | 0.0182 | 33.3 | > 52.2
O=C1NC(N2CCOCC2)=N/C1=C\c1ccccc1 | > 100 | > 100 | > 100 | > 100 | > 100 | > 100 | > 100 | > 100 | > 100 | > 100
CC1CN=C(c2ccc3c(c2)Cc2cc(C4=NCC(C)N4)ccc2-3)N1 (stereo unspecified) | > 100 | > 100 | > 100 | > 100 | > 100 | 65.3 | > 100 | 63.9 | > 100 | 44.8
CO/C=C(/C(=O)OC)c1ccccc1[C@H]1C[C@@H]1c1ccc(OC)cc1 | 50.2 | 74.5 | > 100 |  | > 100 | > 100 | 94.2 | 27.8 | > 100 | 32.1
O=C1CCCc2ccc3c(c21)CC1(Cc2cc4c(cc2C1)CCCC4)C3 | 81.9 | 37.4 | 91.7 | 41.7 | 28 | 56.7 | 38.2 | 46.7 | 93.3 | 48.9
CC12CCC3=C(CSC4=C3CSc3ccccc34)C1=CCCC2=O (stereo unspecified) | > 100 | > 100 | > 100 | > 100 |  |  |  |  | > 100 | > 100
Cc1cc(S(=O)(=O)Nc2nc(N)n(-c3ccccc3)n2)c(S)cc1Cl | > 100 | > 100 | > 100 | > 100 |  | > 100 | > 100 | > 100 | > 100 | > 100
CSc1nc(NC2CC2)c2c(n1)Sc1nc3ccccc3n1N=C2 | 98.7 | > 100 | 72.5 | > 100 | 73.9 | 96.2 | 48.9 | > 100 | 54.6 | 82.4
COC(=O)[C@@]12CC3CN(Cc4c1[nH]c1ccccc41)C2CC3=O | > 100 | > 100 | > 100 | > 100 | > 100 | > 100 | > 100 | > 100 | > 100 | > 100
O=C(O)CC(Cc1ccccc1)C(=O)O (stereo unspecified) | > 100 | > 100 | > 100 | > 100 |  | > 100 |  | > 100 | > 100 | > 100
COc1c2c(cc3oc(=O)ccc13)OC(C)(C)C=C2 | > 125 | 59.1 | > 125 | 84.6 | 34.1 | 57.8 | 76.2 | 68.7 | > 125 | 51.1
Cc1cc(C)c2c(=O)n(CC(O)CN3CCN(c4ncccn4)CC3)sc2n1 (stereo unspecified) | 29.5 | 22.6 | > 100 | 60.7 | > 100 | 31.8 | 31.3 | 30.1 | > 100 | 32.7
O=c1[nH]nc(Nc2ccccc2)c2nnn(Cc3ccccc3)c12 | > 100 | > 100 | > 100 | > 100 | > 100 | > 100 | > 100 | > 100 | > 100 | > 100
Cc1cc2nc(N)n[n+]([O-])c2cc1C | > 100 | > 100 | > 100 | > 100 |  | > 100 | > 100 | > 100 | > 100 | > 100
C=CCCCN1C(=O)C2C3c4ccccc4C(C=O)(c4ccccc43)C2C1=O (stereo unspecified) | 20.7 | 19.4 | 32.1 | 27.1 | 28.2 | 28.5 | 23.5 |  |  | 59.5
O=C(NC12CC3CC(CC(C3)C1)C2)n1cnc2cncnc21 | > 100 | > 100 | > 100 | > 100 | > 100 | > 100 | > 100 | > 100 |  | 58.4
COc1cc(C(C)(C)C)c(OC(=O)/C=C/C(=O)O/C=C/[N+](=O)[O-])c(C(C)(C)C)c1 | > 100 | > 100 |  | > 100 | > 100 | 40.4 | 82.1 | 58.1 | > 100 | 

SMILES | TGI [1] [µM] | TGI [2] [µM] | TGI [3] [µM] | TGI [4] [µM] | TGI [5] [µM] | TGI [6] [µM] | TGI [7] [µM] | TGI [8] [µM] | TGI [9] [µM] | TGI [10] [µM]
NCCCCN(CCCN)C(=O)OCc1ccccc1 | > 100 | > 100 | > 100 | > 100 | > 100 | > 100 | > 100 | > 100 | > 100 | > 100
CCOC(=O)C(C(N)=O)c1nc2cc([N+](=O)[O-])ccc2nc1/C=C(\O)c1ccc(C)cc1 (stereo unspecified) | > 100 | 1.39 | 48.3 | > 92.3 | 40.8 | > 60.5 | 46.7 | > 100 | > 100 | 48.9
CS(=O)(=O)c1ccc(C2=C(c3ccccc3)C(=O)OC2)cc1 | > 100 | > 100 | > 100 | > 100 | > 100 | > 100 | > 100 | > 100 | > 100 | > 100
Cc1ccc(N=c2oc3c(ccc4ccccc43)nc2Nc2ccc(C)cc2)cc1 | > 100 | > 100 | > 100 | > 100 | > 100 |  | > 100 | > 100 | > 100 | > 100
O=C1CCCn2c3ccccc3c3ccnc1c32 | > 85.2 | > 100 | > 100 | > 100 | > 100 | > 100 |  |  | 56.4 | > 100
Nc1nc(-c2ccccc2)cc(-c2ccc(F)cc2)c1-c1ccc(Cl)cc1 | > 100 | > 100 | > 100 | > 100 |  | > 100 | > 100 | > 100 | > 100 | > 100
CSCC[C@@H](NC(=O)[C@H](CC(C)C)NC(=O)C(Cc1cnc[nH]1)NC(=O)CNC(=O)[C@@H](NC(=O)[C@H](C)NC(=O)[C@H](Cc1cn(C=O)c2ccccc12)NC(=O)[C@H](CCC(N)=O)NC(=O)[C@@H](N)CC(N)=O)C(C)C)C(N)=O (stereo partly specified) | > 100 | > 100 | > 100 | > 100 |  | > 100 |  |  | > 100 | > 100
N.N.NCCCCN.O=C([O-])CCl.O=C([O-])CCl.O=C([O-])CCl.O=C([O-])CCl.[Pt+4].[Pt+4] | > 50 | > 50 |  | > 50 | > 50 |  |  |  |  | > 50
CCCCOP(=O)(OCCCC)C(NS(=O)(=O)c1ccccc1)(C(=O)OCC)C(F)(F)F (stereo unspecified) | > 100 | 58.1 | > 100 |  | 71.8 | 76.1 | 36.7 | 56.3 | 74.9 | 
O=C(CSCC(=O)N/N=C/c1ccc(F)cc1)N/N=C/c1ccc(F)cc1 | > 100 | 76.9 | > 100 | > 100 | > 100 | > 100 | > 100 |  | > 100 | > 100
c1ccc(C[P+]2(c3ccccc3)CCCCC2)cc1 | > 100 | > 100 | > 100 | > 100 |  |  |  |  | > 100 | > 100
C/C(=C/CC[C@](C)(OC1OC(CO)C(O)C(O)C1OC1OC(C)C(O)C(O)C1O)[C@H]1CC[C@]2(C)[C@@H]1CC[C@@H]1[C@@]3(C)CC[C@H](O)C(C)(C)[C@@H]3C[C@H](O)[C@]12C)CO (stereo partly specified) | > 100 | > 100 | > 100 | > 100 | > 100 | > 100 | > 100 | > 100 | > 100 | 
COc1cc2[nH]c(=O)[nH]c2c2c(C)c[nH]c12 | > 100 | > 100 | > 100 | > 100 |  | > 100 | > 100 | > 100 | > 100 | > 100
C=CCn1c(-c2ccc(N=NNc3ccc(-c4n[nH]c(=S)n4CC=C)cc3)cc2)n[nH]c1=S | > 100 |  | > 100 | > 100 | 39.1 | > 100 | > 100 | > 100 | 6.13 | 
C(=C/c1ccc2nc(-c3ccc(/C=C/C=N/NC4=NCCCN4)cc3)cn2c1)/C=N/NC1=NCCCN1 | 35.7 | > 100 | > 100 |  | > 100 |  | 28.5 | > 100 | 32.6 | > 100
COC12OC3(C4OC41)C(C(=O)O[C@H]3CO[Si](C)(C)C(C)(C)C)C2S(=O)(=O)c1ccccc1 (stereo partly specified) | > 5.18 | 3.53 |  | > 31.6 | > 100 | > 100 | > 7.32 | > 5.11 | > 100 | > 5.33
CN(C)CCNc1ccccn1 | > 100 | > 100 | > 100 | > 100 | > 100 |  | > 100 | > 100 | > 100 | > 100
CC(C)CC(NC(=O)C(CCC(=O)OCc1ccccc1)NC(=O)OC(C)(C)C)C(=O)NC(COCc1ccccc1)C(=O)NC(Cc1ccccc1)C(=O)O (stereo unspecified) (Boc-E(OBn)LS(Bn)F-OH; configuration not given here) | > 100 | > 100 | > 100 | > 100 | > 100 | > 100 | > 100 |  | > 100 | > 100
O=c1[nH]c(=O)n(COCCO)cc1-c1ccccc1 | > 100 | > 100 | > 100 | > 100 | > 100 | > 100 | > 100 | > 100 |  | > 100
C/C(=N\NC(=S)N/N=C(\C)c1ccccn1)c1ccccn1 | 84.3 | 5.9 | > 100 | > 100 | > 100 | > 100 | > 100 | > 100 | 3.78 | 
COc1cc(CNc2nc3cc(C(F)(F)F)ccc3nc2C(=O)O)cc(OC)c1OC | 57.1 | 58.1 | 56.7 | > 100 |  | 49.9 |  | 92.9 | > 100 | 47.1
COC(=O)c1ccc2c(c1)CC1(C2)Cc2ccc3c(c2C1)CCC3 (stereo unspecified) | > 100 | 37.4 | > 100 | > 100 | > 100 | 81.5 | 22.1 | 14.3 | > 100 | 
